Measured values published in patent US11242321B2, “Salt forms of organic compound” (KAINOS MEDICINE INC., priority 2018, dated 2022).

Assays:
[1] = Dynamic vapor sorption (DVS); assay type: physicochemical
Method: SMS DVS Intrinsic dynamic vapour sorption instrument using DVS-Intrinsic control software v1.0.6.0. Analysis of the data was performed using the DVS analysis suite v7.0.13.1 macro program embedded in Microsoft Excel. Analysis was performed as a wt % change from 0-90% RH with isothermal plots also being examined.
Ca. 10-15 mg of sample was weighed into a stainless steel DVS basket before submitting for analysis. The samples were analysed over the range of 0-90% RH with a maximum time of 6 hours per humidity stage. Each sample was exposed to a double cycle. XRPD analysis of all samples was performed post-DVS.

[2] = Aqueous solubility assessment of salt screen solids (visual); details: Ca. 5 mg in up to 4000 μL water (1.25 mg/ml), shaken overnight at 50° C.
Method: Aqueous solubility assessment was performed using Ca. […] These samples were added to aliquots of deionized water up to a maximum of 4000 μL with the samples being shaken between additions to encourage dissolution prior to a visual inspection.

[3] = FaSSIF/FeSSIF solubility; assay type: physicochemical; details: thermodynamic from solid, shaken 24 h at 37° C.
Method: Ca. 25 mg of each of the salts were weighed into a 2 mL HPLC vial prior to the addition of 1 mL of Fasting State Simulated Intenstinal Fluid (FaSSIS) solution. […] The experiment was also repeated using Fed State Simulated Intestinal Fluid (FeSSIF) solution.

[4] = Aqueous solubility, 24 h shake, gravimetric; assay type: physicochemical; details: thermodynamic from solid, deionized water
Method: Ca. 50 mg of each of the salts were weighed into a 2 mL HPLC vial prior to the addition of 1 mL of deionized water. […] The experiment was also repeated at 50° C.

[5] = pH1 stability; assay type: physicochemical; details: pH 1 buffer, 4 h at 37° C.
Method: Ca. 25 mg of each of the salts were weighed into a 2 mL HPLC vial prior to the addition of 1 mL of pH 1 buffer. The samples were then shaken for 4 h at 37° C. before being filtered into SPE cartridges and dried overnight.

[6] = pH of saturated solution; assay type: physicochemical; details: saturated solution in deionized water, room temperature
Method: A saturated solution of each of the salts was prepared in 5 mL of deionized water at room temperature prior to analysis.

[7] = Stability at 40° C./75% RH; assay type: physicochemical

O=C(CSc1ccc(Br)cc1)Nc1cn(CCc2ccccc2)nc1C(=O)[O-].[Na+] [sodium salt, 4-(2-((4-bromophenyl)thio)acetamido)-1-phenethyl-1H-pyrazole-3-carboxylic Acid Sodium Salt]
DVS mass increase between 0-90% RH, first cycle ([1]; 0-90% RH, first cycle): Ca. 11.7% mass increase between 0-90% RH on
XRPD post DVS ([1]; after double cycle 0-90% RH): Crystalline - no change in form
Solubility assessment (dissolution in deionized water), salt from DIPE ([2]; salt prepared from DIPE): Complete
Solubility assessment (dissolution in deionized water), salt From Ethanol ([2]; salt prepared from ethanol): Complete
solubility at 24 h ([3]; FaSSIF, read-out: FaSSIF solubility @ 37° C.): 4000 µg/mL
solubility at 24 h ([3]; FeSSIF, read-out: FeSSIF solubility @ 37° C.): 3800 µg/mL
solubility at 24 h ([4]; shaken 24 h at 25° C., read-out: Aqueous solubility @ 25° C.): 2300 µg/mL
solubility at 24 h ([4]; shaken 24 h at 50° C.): 2400 µg/mL
Observations post stability (pH 1 for 4 h) [5]: No visual change
XRPD post stability (pH 1 for 4 h) [5]: Partially crystalline: change in crystalline
Chemical purity post stability (pH 1 for 4 h) ([5]; HPLC): >99.9% (by peak area)
1H NMR post stability (pH 1 for 4 h) ([5]; cell continues: salt form is no longer present): No chemical shifts, indicating that salt form
pH of rm temp sat'd sol'n [6]: 10.31
Observation post stability (40° C./75% RH) [7]: No visible change
XRPD post stability (40° C./75% RH) [7]: Crystalline - no change in form
Chemical purity post stability (40° C./75% RH) ([7]; HPLC): >99.9% (by peak area)
